{"source": "paper PMC2981816", "about": "“Oxalyl retro-peptide gelators. Synthesis, gelation properties and stereochemical effects” (Beilstein Journal of Organic Chemistry, 2010)", "format_in_all_cases": "physicochemical", "key": {"[1]": {"experiment": "Gelation test: gelator effectiveness (Geff) and minimal gelation concentration in solvents and solvent mixtures", "set-up": "key to Gelator effectiveness (Geff): sol.: soluble; ins.: insoluble; cr.: crystallization; [A]: gel/sol mixture", "settings": "for Gelator effectiveness (Geff): Table 1", "procedure": "Gelation observed for selected gelator–solvent pairs is expressed by gelator effectiveness (Geff, mL) corresponding to the maximal volume of solvent that could be immobilized by 10 mg of the gelator (Table 1). […] However, 3a and 5a also gelled small to moderate volumes of EtOH and rac-2-octanol, whilst Leu incorporating 1a formed gels with the more lipophilic solvents, decalin and tetralin. […] Apparently, the retro-peptides incorporating aliphatic and aromatic amino acids are less versatile gelators compared to retro-peptides containing […] amino acid fragments. The latter points to the importance of intermolecular lipophilic interactions for the stabilization of gel assemblies being stronger in the case of identical amino acids either lipophilic or aromatic, and weaker for mixed aromatic-lipophilic amino acid fragments present in the gelator molecule."}, "[2]": {"experiment": "Gelation test: gelator effectiveness (Geff) and minimal gelation concentration in solvents and solvent mixtures"}, "[3]": {"experiment": "TEM of gel networks (PWK negative staining), fiber diameters", "settings": "water/DMSO gel", "source_text": "TEM images of diastereomeric (S,S)-1a and (S,R)-1a water/DMSO gels (Figure 2 and Figure 3) show highly distinct morphology of gel networks. In the first gel rather straight fibers and fiber bundles with diameters in the range of 40–100 nm could be observed. […] As observed earlier for other gel systems, gelator effectiveness Geff depends not only solubility but also depends on the thickness of fibers constituting the network. […] The TEM observed thicknesses of gel aggregates existing in water/DMSO and toluene gels could be also correlated with gelator effectiveness (Geff, mL, see Table 1 and Table 2). It appears that (S,R)-1b (Geff 19.5 mL, water/DMSO gel) organized in thinner fibers is more than twice effective a gelator than its diasteroisomer (S,S)-1a (Geff 8.0 mL, water/DMSO gel) which forms thicker fiber bundles. In the toluene gel, (S,R)-1b organizes into wide and short tapes with low networking capacity which is reflected in a very low (Geff 0.15 mL) gelator effectiveness. page 11: TEM and SEM investigations: transmission electron micrographs were taken on an EM 10 A Zeiss or FEI Morgagni 268D transmission electron microscope. A small amount of sample was placed on carbon-coated grid (copper, 100 mesh). The sample was negatively stained with PWK (dipotassium phosphotungstate). […]"}}}
{"smiles": "CC(C)C[C@H](NC(=O)[C@H](CC(C)C)NC(=O)C(=O)N[C@@H](CC(C)C)C(=O)N[C@@H](CC(C)C)C(=O)O)C(=O)O", "note": "[(S,S)-1a, (S,S)-bis(LeuLeu)]", "values": [{"measurement": "Gelator effectiveness (Geff)", "setting": "[1]; max. volume immobilized by 10 mg gelator, CH2Cl2", "result": "ins."}, {"measurement": "Gelator effectiveness (Geff)", "setting": "[1]; max. volume immobilized by 10 mg gelator, CH3CN", "result": "cr."}, {"measurement": "Gelator effectiveness (Geff)", "setting": "[1]; max. volume immobilized by 10 mg gelator, EtOH", "result": "sol."}, {"measurement": "Gelator effectiveness (Geff)", "setting": "[1]; max. volume immobilized by 10 mg gelator, H2O/DMF mixture, given as volume + volume", "result": "5.84+3.25 mL"}, {"measurement": "Gelator effectiveness (Geff)", "setting": "[1]; max. volume immobilized by 10 mg gelator, H2O/DMSO mixture, given as volume + volume", "result": "5.09+2.98 mL"}, {"measurement": "Gelator effectiveness (Geff)", "setting": "[1]; max. volume immobilized by 10 mg gelator, THF", "result": "sol."}, {"measurement": "Gelator effectiveness (Geff)", "setting": "[1]; max. volume immobilized by 10 mg gelator, decalin", "result": 0.2, "unit": "mL"}, {"measurement": "Gelator effectiveness (Geff)", "setting": "[1]; max. volume immobilized by 10 mg gelator, p-xylene", "result": "ins."}, {"measurement": "Gelator effectiveness (Geff)", "setting": "[1]; max. volume immobilized by 10 mg gelator, tetralin", "result": 1.8, "unit": "mL"}, {"measurement": "Gelator effectiveness (Geff)", "setting": "[1]; max. volume immobilized by 10 mg gelator, toluene", "result": "cr."}, {"measurement": "Gelator effectiveness (Geff)", "setting": "[1]; max. volume immobilized by 10 mg gelator, ±2-octanol", "result": "ins."}, {"measurement": "Gelator effectiveness (Geff)", "setting": "[1]; maximal volume of solvent immobilized by 10 mg of gelator, solvent H2O", "result": "ins."}, {"measurement": "Geff, total volume", "setting": "[1]; water/DMSO gel, total of both solvent volumes, 10 mg gelator", "result": 8.0, "unit": "mL"}, {"measurement": "times more effective in gelation than 3a and 5a", "setting": "[1]; water/DMSO or DMF mixtures", "result": "more than 2 times"}, {"measurement": "solubility in water", "setting": "[2]", "result": "insoluble"}, {"measurement": "fiber / fiber bundle diameter", "setting": "[3]", "result": "40–100 nm"}]}
